# From patent publication US5179113A, “Treatment of central nervous disorders with imidazole compounds” (E. I. Du Pont de Nemours and Company, priority 1991, dated 1993)
# Entries after “also recorded” stand apart in the source; their conditions may differ. Where a name gives a salt, the structure may show the parent alone.
# Columns and labels:
# [1] = system: AII receptor subtype-1 (AII-1); details: rat adrenal cortex; cited from earlier work
# [2] = system: AII receptor subtype-2 (AII-2); details: rat adrenal cortex; cited from earlier work
# [3] = system: AII-2 receptors in the brain; assay: Binding of AII antagonists to brain slices, AII-2 sites; details: majority of binding sites
# [4] = system: AII-1 receptors in the brain; assay: Binding of AII antagonists to brain slices, AII-1 sites; details: clusters of AII-1 sites
# [5] = system: male Sprague-Dawley rats (renin-induced amnesia); assay: Renin-disrupted passive avoidance retention; format: in vivo, rat; details: for effect on renin-induced amnesia (in words): co-administered with renin IVT
# Procedure: Experimentally naive male Sprague-Dawley rats […] (Charles River Breeding Laboratories, Kingston, N.Y.), weighing between 175 to 200 gm were used. The animals were housed four per cage (45.0(L)×20.0(H)×26.0(W) cm) with free access to food and water. They were maintained on a 12 h light/dark cycle (lights on 600 h) and at a room temperature of 22°±1° C. with relative humidity of 50±10%. The experimental sessions were conducted in a two-compartment passive avoidance box. One compartment, made of clear plastic with a perforated clear plastic floor, measured 21(L)×24.5(H)×17(W) cm and was illuminated with a 60 watt incandescent light bulb placed 36 cm above the floor. The other compartment, made of black plastic, measured 30.5(L)×20.3(H)×21.5(W) cm with a floor made of 4 mm stainless steel rods spaced 1.2 cm apart. A grid floor shocker (Coulbourn Instruments) was connected to the steel rods and provided scrambled footshock. The two compartments were separated by a solenoid-operated slide door (Lafayette Instrument Co., Lafayette, Ind.). An electronic counter (Coulbourn Instruments), triggered by the opening or closing of the slide door, recorded acquisition and retention latencies (latencies were defined as the time it took an animal to enter the dark compartment). Passive avoidance training began by placing the rat into the clear compartment of the two-compartment passive avoidance box. Following a 10 sec delay, the slide door to the dark compartment was raised. Once the rat moved completely into the dark compartment (all four paws on the shock grid floor) the slide door was lowered, and after a 10 sec delay, a 1.0 mA shock was applied to the grid floor for three sec. A second three sec shock was delivered after an additional 10 sec delay. The rats were immediately removed from the dark compartment and returned to their home cage. A retention test was given 24 h later. It proceeded in the same manner as the training session except that no shock was applied to the grid floor when the rats were provided access to the dark compartment for a maximum of 300 sec. […] All drugs were administered IVT 60 minutes prior to acquisition training in a volume of 5 μl. Doses are expressed as the free base weight of each compound.
# AII-1 receptor = assay: AII receptor antagonism, subtype AII-1, as stated; details: stated in words, no data
# [6] = system: eight arm radial maze performance in rats; details: 3 mg/kg IP; Usinger et al. 1988; cited from earlier work
# [7] = system: memory of previously learned tasks; details: EP 288,907; cited from earlier work
# [8] = system: retention of a passive avoidance (PA) response in rats; details: injected into dorsal neostriatum; Morgan and Routtenberg 1977; cited from earlier work
# [9] = system: release of ACh in entorhinal cortex from rat brain; details: in vitro; Barnes et al. 1989; cited from earlier work
# [10] = system: AII in cerebrospinal fluid (CSF); details: renin into lateral ventricle; AII increased from 40; Koller et al. 1975; cited from earlier work
molecule,measurement,setting,value
"O[C@H](CS)[C@H](O)CS (racemic) [DTT, dithiothreitol]",sensitivity of AII-1 receptor to inactivation by DTT,[1],particularly sensitive to inactivation
same,sensitivity of AII-2 receptor to inactivation by DTT,[2],resistant to DTT inactivation
same,sensitivity of AII-2 binding sites in brain,[3],DTT-insensitive
same,sensitivity of AII-1 binding sites in brain,[4],DTT-sensitive
"CCCc1nc(C(F)(F)F)c(C(=O)O)n1Cc1ccc(-c2ccccc2-c2nn[nH]n2)cc1 [Compound C, sodium salt of 2-n-propyl-1-[(2'-(1H-tetrazol-5-yl)biphenyl-4-yl)methyl]-4-trifluoromethylimidazole-5-carboxylic acid]",effect on renin-induced amnesia (in words),[5],protected against the amnesia
same,AII-1 receptor antagonism,AII-1 receptor,AII-1 receptor antagonists
"CCCc1nc(C(F)(F)F)c(CO)n1Cc1ccc(-c2ccccc2-c2nn[nH]n2)cc1 [Compound D, sodium salt of 2-n-propyl-5-hydroxymethyl-1-[(2'-(1H-tetrazol-5-yl)biphenyl-4-yl)methyl]-4-trifluoromethylimidazole]",effect on renin-induced amnesia (in words),[5],protected against the amnesia
same,AII-1 receptor antagonism,AII-1 receptor,AII-1 receptor antagonists
"Cc1cc(Cn2cnc3c2CC(C(=O)O)N(C(=O)C(c2ccccc2)c2ccccc2)C3)ccc1N (stereo not drawn) [EXP655, 1-(4-amino-3-methylphenyl)methyl-5-diphenylacetyl-4,5,6,7-tetrahydro-1H-imidazo[4,5-c]pyridine-6-carboxylic acid]",effect on renin-induced amnesia (in words),[5],much less effective in preventing the amnesia
same,sensitivity of AII-2 binding sites in brain,[3],EXP655-sensitive
CCOC(=O)C(CCc1ccccc1)NC(C)C(=O)N1CC2(CC3CCC2CC3)CC1C(=O)O (stereo not drawn) [Hoe 288],effect on muscarinic receptor blockade on performance,[6],partially antagonized the effects of muscarinic receptor blockade on performance
NCCCC[C@H](OP(=O)(O)CCCCc1ccccc1)C(=O)N1CCC[C@H]1C(=O)O [SQ 29852],effect on an anticholinergic effect on performance,[7],"ameliorate, at least in part"
C[C@H](CS)C(=O)N1CCC[C@H]1C(=O)O [captopril],effect on renin-induced amnesia (in words),[5],prevented
NC(=O)[C@@H]1CCCN1C(=O)[C@H](Cc1cnc[nH]1)NC(=O)[C@@H]1CCC(=O)N1 [thyrotropin releasing hormone],effect on retention of PA response,[8],no effect
"AI: AI, compared with AII in ACh release (DRVYIHPFHL; Angiotensin-1; UniProt P01019 25-34, looked up)",effect on potassium-stimulated release of ACh,[9],not AI
"AII: Angiotensin-II, circulating hormone thought to act as a neuropeptide in the CNS (DRVYIHPF; Angiotensin-2; UniProt P01019 25-32, looked up)",effect on retention of PA response,[8],disruption in retention of a PA response
same,effect on basal ACh levels,[9],without effects on basal levels
"[1-sarcosine, 8-threonine]angiotensin-II",effect on AII-induced reduction of ACh release,[9],antagonized
lysine-8-vasopressin,effect on retention of PA response,[8],no effect
"renin: Renin (Sigma Chemicals), a stimulator of endogenous AII biosynthesis (protein, UniProt P00797 67-406, looked up) Renin: LTLGNTTSSVILTNYMDTQYYGEIGIGTPPQTFKVVFDTGSSNVWVPSSKCSRLYTACVYHKLFDASDSSSYKHNGTELTLRYSTGTVSGFLSQDIITVGGITVTQMFGEVTEMPALPFMLAEFDGVVGMGFIEQAIGRVTPIFDNIISQGVLKEDVFSFYYNRDSENSQSLGGQIVLGGSDPQHYEGNFHYINLIKTGVWQIQMKGVSVGSSTLLCEDGCLALVDTGASYISGSTSSIEKLMEALGAKKRLFDYVVKCNEGPTLPDISFHLGGKEYTLTSADYVFQESYSSKKLCTLAIHAMDIPPPTGPTWALGATFIRKFYTEFDRRNNRIGFALAR",memory deficit / amnesia produced by renin (in words),"[5]; IVT, passive avoidance",produces a reliable memory deficit in rats; also recorded: dose-related amnesia in a PA task
same,AII in CSF after renin,[10],about 5000 fmol per mL
